Measured values taken from PubChem BioAssay (NCI).
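Following 48 hours of exposure in 96-well plates, responses at five concentrations were used to interpolate endpoints linearly. GI50: concentration for 50% inhibition of growth. At the TGI there is no net growth.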

Experiments:
Experiment in all cases: NCI-60 cell line screen, 48 h
[1] = test system: HOP-92 NSCLC
[2] = test system: RPMI-8226 leukemia
[3] = test system: SNB-75 CNS
[4] = test system: HS 578T breast
[5] = test system: NCI/ADR-RES ovarian
[6] = test system: 786-0 renal
[7] = test system: NCI-H23 lung
[8] = test system: CCRF-CEM leukemia
[9] = test system: SNB-19 CNS
[10] = test system: SN12C renal
[11] = test system: NCI-H226 lung
[12] = test system: SK-MEL-2 melanoma
[13] = test system: SF-539 CNS
[14] = test system: RXF 393 renal
[15] = test system: UACC-257 melanoma
[16] = test system: SK-OV-3 ovarian
[17] = test system: EKVX NSCLC
[18] = test system: MALME-3M melanoma
[19] = test system: SR leukemia
[20] = test system: HOP-62 NSCLC
[21] = test system: PC-3 prostate
[22] = test system: SF-295 CNS
[23] = test system: SW-620 colon
[24] = test system: MCF7 breast
[25] = test system: KM12 colon
[26] = test system: CAKI-1 renal
[27] = test system: A498 renal
[28] = test system: M14 melanoma
[29] = test system: HL-60(TB) leukemia
[30] = test system: OVCAR-3 ovarian
[31] = test system: COLO 205 colon
[32] = test system: MDA-MB-435
[33] = test system: BT-549 breast
[34] = test system: HCT-15 colon
[35] = test system: U251 CNS
[36] = test system: ACHN renal
[37] = test system: IGROV1 ovarian
[38] = test system: SK-MEL-28 melanoma
[39] = test system: OVCAR-4 ovarian
[40] = test system: A549 NSCLC
[41] = test system: NCI-H460 lung
[42] = test system: HCC-2998 colon
[43] = test system: OVCAR-8 ovarian
[44] = test system: MDA-MB-231 breast
[45] = test system: LOX IMVI melanoma
[46] = test system: SK-MEL-5 melanoma
[47] = test system: HT29 colon
[48] = test system: TK-10 renal
[49] = test system: DU-145 prostate
[50] = test system: SF-268 CNS
[51] = test system: UACC-62 melanoma
[52] = test system: UO-31 renal
[53] = test system: MOLT-4 leukemia
[54] = test system: HCT-116 colon
[55] = test system: OVCAR-5 ovarian
[56] = test system: T-47D breast

What does the source list for `C#C[C@]1(O)CC[C@H]2[C@@H]3CC=C4c5sc(Nc6ncccc6C)nc5CC[C@]4(C)[C@H]3CC[C@@]21C`?
GI50 [1]: 2310 nM; TGI [1]: 5990 nM; GI50 [2]: 264 nM; TGI [2]: 681 nM; GI50 [3]: 568 nM; TGI [3]: 5440 nM; GI50 [4]: 424 nM; TGI [4]: 2300 nM; GI50 [5]: 1810 nM; TGI [5]: 6150 nM; GI50 [6]: 355 nM; TGI [6]: 1430 nM; GI50 [7]: 1770 nM; TGI [7]: 6240 nM; GI50 [8]: 1010 nM; TGI [8]: 4460 nM; GI50 [9]: 1880 nM; TGI [9]: 6580 nM; GI50 [10]: 1830 nM; TGI [10]: 4160 nM; GI50 [11]: 1490 nM; TGI [11]: 3400 nM; GI50 [12]: 1280 nM; TGI [12]: 4350 nM; GI50 [13]: 335 nM; TGI [13]: 1310 nM; GI50 [14]: 150 nM; TGI [14]: 456 nM; GI50 [15]: 1640 nM; TGI [15]: 4290 nM; GI50 [16]: 1850 nM; TGI [16]: 4660 nM; GI50 [17]: 1340 nM; TGI [17]: 9530 nM; GI50 [18]: 1780 nM; TGI [18]: 4850 nM; GI50 [19]: 493 nM; TGI [19]: 2460 nM; GI50 [20]: 1350 nM; TGI [20]: 3310 nM; GI50 [21]: 603 nM; TGI [21]: 8670 nM; GI50 [22]: 246 nM; TGI [22]: 694 nM; GI50 [23]: 1530 nM; TGI [23]: 3100 nM; GI50 [24]: 1050 nM; TGI [24]: 3150 nM; GI50 [25]: 1660 nM; TGI [25]: 4550 nM; GI50 [26]: 1350 nM; TGI [26]: 3280 nM; GI50 [27]: 454 nM; TGI [27]: 1910 nM; GI50 [28]: 1290 nM; TGI [28]: 3430 nM; GI50 [29]: 1400 nM; TGI [29]: 3760 nM; GI50 [30]: 2040 nM; TGI [30]: 5290 nM; GI50 [31]: 1800 nM; TGI [31]: 3900 nM; GI50 [32]: 2080 nM; TGI [32]: 6390 nM; GI50 [33]: 1170 nM; TGI [33]: 4120 nM; GI50 [34]: 1360 nM; TGI [34]: 3000 nM; GI50 [35]: 753 nM; TGI [35]: 3340 nM; GI50 [36]: 1850 nM; TGI [36]: 10700 nM; GI50 [37]: 2450 nM; TGI [37]: 8960 nM; GI50 [38]: 425 nM; TGI [38]: 1640 nM; GI50 [39]: 1900 nM; TGI [39]: 11300 nM; GI50 [40]: 2050 nM; TGI [40]: 12800 nM; GI50 [41]: 1270 nM; TGI [41]: 2860 nM; GI50 [42]: 2530 nM; TGI [42]: 6710 nM; GI50 [43]: 1990 nM; TGI [43]: 13600 nM; GI50 [44]: 1650 nM; TGI [44]: 4390 nM; GI50 [45]: 1320 nM; TGI [45]: 2720 nM; GI50 [46]: 1570 nM; TGI [46]: 2960 nM; GI50 [47]: 1600 nM; TGI [47]: 3990 nM; GI50 [48]: 2560 nM; TGI [48]: 6820 nM; GI50 [49]: 2240 nM; TGI [49]: 7460 nM; GI50 [50]: 1860 nM; TGI [50]: 7300 nM; GI50 [51]: 1550 nM; TGI [51]: 3430 nM; GI50 [52]: 1230 nM; TGI [52]: 2820 nM; GI50 [53]: 561 nM; TGI [53]: 2700 nM; GI50 [54]: 1040 nM; TGI [54]: 2510 nM; GI50 [55]: 1830 nM; TGI [55]: 4390 nM; GI50 [56]: 2110 nM; TGI [56]: 8520 nM
